Source: patent US8765728B2, “[1,5]-diazocin derivatives” (MelliTech, priority 2009, dated 2014)

The compounds below were run on Min6 cell (assay: Insulin secretion response of beta cell line to formula I compounds (insulin ELISA)). Conditions: rank according to % increase versus control at most effective dose.
Assay type: cell-based
Summary of the method: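 After compound or vehicle exposure, Min6 cells were held 2 h in glucose-free medium and preincubated 30 min at 37° C in glucose-free KRBH (pH 7.4, 0.1% BSA). They were then incubated 30 min at 37° C in KRBH with varying glucose. Secreted insulin and acid-ethanol-extracted intracellular insulin were measured by ELISA.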

SMILES	Insulin secretion (Min6 cell) Range 1 to 5
O=C(c1ncoc1-c1ccccc1)N1CCC(=O)N(C2CC2)Cc2c1ccc1c2OCCO1 [Compound 92, 11-cyclopropyl-7-[(5-phenyl-1,3-oxazol-4-yl)carbonyl]-2,3,8,9,11,12-hexahydro[1,4]dioxino[2,3-h][1,5]benzodiazocin-10(7H)-one]	1 (1: 90-110% of control)
O=C(CN1CCC(=O)N(C2CC2)Cc2c1ccc1c2OCCO1)c1cccc(F)c1 [Compound 93, 11-cyclopropyl-7-[2-(3-fluorophenyl)-2-oxoethyl]-2,3,8,9,11,12-hexahydro[1,4]dioxino[2,3-h][1,5]benzodiazocin-10(7H)-one]	1 (1: 90-110% of control)
O=C(CN1CCC(=O)N(C2CC2)Cc2c1ccc1c2OCCO1)c1ccc(Cl)cc1 [Compound 94, 7-[2-(4-chlorophenyl)-2-oxoethyl]-11-cyclopropyl-2,3,8,9,11,12-hexahydro[1,4]dioxino[2,3-h][1,5]benzodiazocin-10(7H)-one]	1 (1: 90-110% of control)
O=C1CCN(CC(O)COc2ccccc2)c2ccc3c(c2CN1C1CC1)OCCO3 (centres unmarked) [Compound 95, 11-cyclopropyl-7-(2-hydroxy-3-phenoxypropyl)-2,3,8,9,11,12-hexahydro[1,4]dioxino[2,3-h][1,5]benzodiazocin-10(7H)-one]	1 (1: 90-110% of control)
O=C1CCN(CC(O)c2cccc(F)c2)c2ccc3c(c2CN1C1CC1)OCCO3 (centres unmarked) [Compound 96, 11-cyclopropyl-7-[2-(3-fluorophenyl)-2-hydroxyethyl]-2,3,8,9,11,12-hexahydro[1,4]dioxino[2,3-h][1,5]benzodiazocin-10(7H)-one]	3 (3: 120-140% of control)
O=C1CCN(CC(O)c2ccc(Cl)cc2)c2ccc3c(c2CN1C1CC1)OCCO3 (centres unmarked) [Compound 97, 7-[2-(4-chlorophenyl)-2-hydroxyethyl]-11-cyclopropyl-2,3,8,9,11,12-hexahydro[1,4]dioxino[2,3-h][1,5]benzodiazocin-10(7H)-one]	2 (2: 110-120% of control)
COc1ccc2c(c1)CN(C1CC1)C(=O)CCN2C(=O)c1ncoc1-c1ccccc1 [Compound 98, 5-cyclopropyl-8-methoxy-1-(5-phenyloxazole-4-carbonyl)-2,3,5,6-tetrahydrobenzo[b][1,5]diazocin-4(1H)-one]	2 (2: 110-120% of control)
COc1ccc2c(c1)CN(C1CC1)C(=O)CCN2C(=O)c1cc(C)nn1C [Compound 99, 5-cyclopropyl-1-(1,3-dimethyl-1H-pyrazole-5-carbonyl)-8-methoxy-2,3,5,6-tetrahydrobenzo[b][1,5]diazocin-4(1H)-one]	1 (1: 90-110% of control)
COc1ccc2c(c1)CN(C1CC1)C(=O)CCN2C(=O)c1c(C)noc1C [Compound 100, 5-cyclopropyl-1-(3,5-dimethylisoxazole-4-carbonyl)-8-methoxy-2,3,5,6-tetrahydrobenzo[b][1,5]diazocin-4(1H)-one]	1 (1: 90-110% of control)
COc1ccc2c(c1)CN(C1CC1)C(=O)CCN2C(=O)c1cnccn1 [Compound 101, 5-cyclopropyl-8-methoxy-1-(pyrazine-2-carbonyl)-2,3,5,6-tetrahydrobenzo[b][1,5]diazocin-4(1H)-one]	2 (2: 110-120% of control)
O=C(c1ncoc1-c1ccccc1)N1CCC(=O)N(C2CC2)Cc2cccnc21 [Compound 103, 5-cyclopropyl-1-(5-phenyloxazole-4-carbonyl)-2,3,5,6-tetrahydropyrido[2,3-b][1,5]diazocin-4(1H)-one]	2 (2: 110-120% of control)
Cc1cc(C(=O)N2CCC(=O)N(C3CC3)Cc3cccnc32)no1 [Compound 104, 5-cyclopropyl-1-(5-methylisoxazole-3-carbonyl)-2,3,5,6-tetrahydropyrido[2,3-b][1,5]diazocin-4(1H)-one]	4 (4: 140-170% of control)
Cc1cc(C(=O)N2CCC(=O)N(C3CC3)Cc3cccnc32)n(C)n1 [Compound 105, 5-cyclopropyl-1-(1,3-dimethyl-1H-pyrazole-5-carbonyl)-2,3,5,6-tetrahydropyrido[2,3-b][1,5]diazocin-4(1H)-one]	3 (3: 120-140% of control)
Cc1noc(C)c1C(=O)N1CCC(=O)N(C2CC2)Cc2cccnc21 [Compound 106, 5-cyclopropyl-1-(3,5-dimethylisoxazole-4-carbonyl)-2,3,5,6-tetrahydropyrido[2,3-b][1,5]diazocin-4(1H)-one]	1 (1: 90-110% of control)
O=C(c1cnccn1)N1CCC(=O)N(C2CC2)Cc2cccnc21 [Compound 107, 5-cyclopropyl-1-(pyrazine-2-carbonyl)-2,3,5,6-tetrahydropyrido[2,3-b][1,5]diazocin-4(1H)-one]	2 (2: 110-120% of control)
O=C1CCNc2ccc(OC(F)F)cc2CN1C1CC1 [Compound 108, 5-cyclopropyl-8-(difluoromethoxy)-2,3,5,6-tetrahydrobenzo[b][1,5]diazocin-4(1H)-one]	2 (2: 110-120% of control)
COc1ccc2c(c1)CN(C1CC1)C(=O)CCN2C[C@@H](O)COc1cccc(F)c1 [Compound 109, (R)-5-cyclopropyl-1-(3-(3-fluorophenoxy)-2-hydroxypropyl)-8-methoxy-2,3,5,6-tetrahydrobenzo[b][1,5]diazocin-4(1H)-one]	3 (3: 120-140% of control)
COc1ccc2c(c1)CN(C1CC1)C(=O)CCN2C[C@H](O)COc1cccc(F)c1 [Compound 110, (S)-5-cyclopropyl-1-(3-(3-fluorophenoxy)-2-hydroxypropyl)-8-methoxy-2,3,5,6-tetrahydrobenzo[b][1,5]diazocin-4(1H)-one]	1 (1: 90-110% of control)
O=C(c1ccno1)N1CCC(=O)N(C2CC2)Cc2cc(OC(F)F)ccc21 [Compound 111, 5-cyclopropyl-8-(difluoromethoxy)-1-(isoxazole-5-carbonyl)-2,3,5,6-tetrahydrobenzo[b][1,5]diazocin-4(1H)-one]	1 (1: 90-110% of control)
O=C(c1ncoc1-c1ccccc1)N1CCC(=O)N(C2CC2)Cc2cc(OC(F)F)ccc21 [Compound 112, 5-cyclopropyl-8-(difluoromethoxy)-1-(5-phenyloxazole-4-carbonyl)-2,3,5,6-tetrahydrobenzo[b][1,5]diazocin-4(1H)-one]	1 (1: 90-110% of control)
Cc1cc(C(=O)N2CCC(=O)N(C3CC3)Cc3cc(OC(F)F)ccc32)no1 [Compound 113, 5-cyclopropyl-8-(difluoromethoxy)-1-(5-methylisoxazole-3-carbonyl)-2,3,5,6-tetrahydrobenzo[b][1,5]diazocin-4(1H)-one]	1 (1: 90-110% of control)
Cc1cc(C(=O)N2CCC(=O)N(C3CC3)Cc3cc(OC(F)F)ccc32)n(C)n1 [Compound 114, 5-cyclopropyl-8-(difluoromethoxy)-1-(1,3-dimethyl-1H-pyrazole-5-carbonyl)-2,3,5,6-tetrahydrobenzo[b][1,5]diazocin-4(1H)-one]	1 (1: 90-110% of control)
Cc1noc(C)c1C(=O)N1CCC(=O)N(C2CC2)Cc2cc(OC(F)F)ccc21 [Compound 115, 5-cyclopropyl-8-(difluoromethoxy)-1-(3,5-dimethylisoxazole-4-carbonyl)-2,3,5,6-tetrahydrobenzo[b][1,5]diazocin-4(1H)-one]	1 (1: 90-110% of control)
O=C(c1cnccn1)N1CCC(=O)N(C2CC2)Cc2cc(OC(F)F)ccc21 [Compound 116, 5-cyclopropyl-8-(difluoromethoxy)-1-(pyrazine-2-carbonyl)-2,3,5,6-tetrahydrobenzo[b][1,5]diazocin-4(1H)-one]	2 (2: 110-120% of control)
O=C1CCN(C[C@@H](O)COc2cccc(F)c2)c2ccc(OC(F)F)cc2CN1C1CC1 [Compound 117, (R)-5-cyclopropyl-8-(difluoromethoxy)-1-(3-(3-fluorophenoxy)-2-hydroxypropyl)-2,3,5,6-tetrahydrobenzo[b][1,5]diazocin-4(1H)-one]	1 (1: 90-110% of control)
O=C1CCN(C[C@H](O)COc2cccc(F)c2)c2ccc(OC(F)F)cc2CN1C1CC1 [Compound 118, (S)-5-cyclopropyl-8-(difluoromethoxy)-1-(3-(3-fluorophenoxy)-2-hydroxypropyl)-2,3,5,6-tetrahydrobenzo[b][1,5]diazocin-4(1H)-one]	2 (2: 110-120% of control)
O=C1CCN(C[C@@H](O)COc2ccc(Cl)cc2)c2ccc(OC(F)F)cc2CN1C1CC1 [Compound 119, (R)-1-(3-(4-chlorophenoxy)-2-hydroxypropyl)-5-cyclopropyl-8-(difluoromethoxy)-2,3,5,6-tetrahydrobenzo[b][1,5]diazocin-4(1H)-one]	3 (3: 120-140% of control)
O=C1CCN(C[C@H](O)COc2ccc(Cl)cc2)c2ccc(OC(F)F)cc2CN1C1CC1 [Compound 120, (S)-1-(3-(4-chlorophenoxy)-2-hydroxypropyl)-5-cyclopropyl-8-(difluoromethoxy)-2,3,5,6-tetrahydrobenzo[b][1,5]diazocin-4(1H)-one]	1 (1: 90-110% of control)
COCC(=O)N1CCC(=O)N(C2CC2)Cc2cc(F)ccc21 [Compound 121, 5-cyclopropyl-8-fluoro-1-(2-methoxyacetyl)-2,3,5,6-tetrahydrobenzo[b][1,5]diazocin-4(1H)-one]	1 (1: 90-110% of control)
